From PubChem BioAssay AID1033 (Sanford-Burnham Center for Chemical Genomics, 2008)
Active and inactive are the calls of the source. How the calls were made is not given here.

Each compound was assayed against Chaperone protein DnaK (Escherichia coli (strain K12)) (UniProt P0A6Y8) (assay: binders of DnaK substrate-binding domain, biophysical, NMR, chaperone (AID 1033)). Settings: Purified DnaK SBD, NMR ligand binding.
Chain of Chaperone protein DnaK (Escherichia coli (strain K12)) (P0A6Y8 whole entry, looked up, the tested form may be a part): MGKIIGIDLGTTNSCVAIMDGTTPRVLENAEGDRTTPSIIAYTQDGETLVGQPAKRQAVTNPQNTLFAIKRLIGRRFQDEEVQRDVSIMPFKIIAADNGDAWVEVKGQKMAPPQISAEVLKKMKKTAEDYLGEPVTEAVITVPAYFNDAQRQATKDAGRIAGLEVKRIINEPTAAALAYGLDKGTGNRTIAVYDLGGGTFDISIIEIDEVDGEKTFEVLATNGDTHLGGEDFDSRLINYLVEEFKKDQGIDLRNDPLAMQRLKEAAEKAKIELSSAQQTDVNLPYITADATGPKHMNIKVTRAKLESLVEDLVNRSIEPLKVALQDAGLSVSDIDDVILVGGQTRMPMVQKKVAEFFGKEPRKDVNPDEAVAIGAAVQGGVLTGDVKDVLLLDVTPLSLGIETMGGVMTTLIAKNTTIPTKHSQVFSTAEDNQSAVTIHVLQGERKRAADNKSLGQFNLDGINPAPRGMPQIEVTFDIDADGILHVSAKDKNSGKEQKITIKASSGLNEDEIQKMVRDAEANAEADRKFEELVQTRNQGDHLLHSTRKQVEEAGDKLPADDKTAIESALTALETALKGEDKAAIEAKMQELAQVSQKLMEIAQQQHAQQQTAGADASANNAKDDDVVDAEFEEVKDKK

SMILES | Kd
O=C(Nc1ccc(N2CCOCC2)cc1)C1CC1 | > 4 mM (inactive)
Cc1sc2nc3n(c(=O)c2c1C)CCCS3 | > 4 mM (inactive)
Cc1ccc(-n2ncc(C#N)c2/N=C/N(C)C)cc1 | > 4 mM (inactive)
NC(=O)COc1cccc2cccnc12 | > 4 mM (inactive)
COc1ccc(NC2=NCC(C)S2)cc1 (centres undefined) | > 4 mM (inactive)
CC(C)Oc1ccc(C2CC(=O)NNC2=O)cc1 (centres undefined) | > 4 mM (inactive)
C[C@H](CCC(=O)O)[C@H]1CCC2C3C(CC[C@@]21C)[C@@]1(C)CC[C@@H](O)C[C@H]1C[C@@H]3O (some centres undefined) | > 4 mM (inactive)
O=C(O)c1ccc2sccc2c1 | > 4 mM (inactive)
COC(=O)c1c(C)cc(OC(=O)c2c(C)cc(O)c(C=O)c2O)c(C)c1O | > 4 mM (inactive)
NC(N)=Nc1nc2ccccc2o1 | > 4 mM (inactive)
CC(C)c1nnc(N)s1 | > 4 mM (inactive)
O=[N+]([O-])c1ccc2c(c1)N([O-])C1(CCCCC1)[N+]2=O | > 4 mM (inactive)
Cc1nnc(Nc2ccc(S(N)(=O)=O)cc2)[nH]c1=O | > 4 mM (inactive)
O=C1C=CC(=O)N1c1ccc(N2CCOCC2)cc1 | > 4 mM (inactive)
CCC(=O)Oc1ccc(N2C(=O)CCC2=O)cc1 | > 4 mM (inactive)
COc1cccc2onc(N)c12 | > 4 mM (inactive)
O=C(Nc1nncs1)C1(c2ccccc2)CCCC1 | > 4 mM (inactive)
Cc1cc(C)nc(/N=C(/N)N2CCN(C)CC2)n1 | > 4 mM (inactive)
Cc1cc(F)c(F)c(C(=O)NC2CC2)c1Cl | > 4 mM (inactive)
Cc1ccc(Nc2nnns2)cc1C | > 4 mM (inactive)
Cc1cccc(N2C(=O)CCC2=O)n1 | > 4 mM (inactive)
O=C1c2cccnc2C(=O)N1Cc1ccc2c(c1)OCO2 | > 4 mM (inactive)
O=C1CCC(=O)N1c1cccnc1 | > 4 mM (inactive)

SMILES | Kd
COC(=O)Cc1cc(=O)n(-c2ccccc2)[nH]1 | > 4 mM (inactive)
Cc1ccc(S(=O)(=O)CC(=O)N(C)C)cc1 | > 4 mM (inactive)
CC(=O)Nc1ccccc1-c1ccccc1NC(C)=O | > 4 mM (inactive)
Cc1c(O)c(O)cc2c1CC=C1[C@@]2(C)CC[C@@]2(C)C3C[C@](C)(C(=O)O)CC[C@]3(C)CC[C@]12C (some centres undefined) | > 4 mM (inactive)
c1ccc(CCc2nc(-c3ccncc3)no2)cc1 | > 4 mM (inactive)
CC1(C)N([O-])c2cc([N+](=O)[O-])ccc2[N+]1=O | > 4 mM (inactive)
OCc1ccncc1 | > 4 mM (inactive)
S=C(CN1CCCC1=S)N1CCOCC1 | > 4 mM (inactive)
CC(=O)O[C@@H]1CC2C(C)(C)C(=O)C3OC3[C@]2(C)C2CC[C@@]3(C)[C@H](c4ccoc4)OC(=O)C4OC43[C@@]21C (some centres undefined) | > 4 mM (inactive)
C[C@@H]1C(=O)O[C@H]2[C@H]1CC[C@@]1(C)C=CC(=O)[C@@]3(C)O[C@@]213 | > 4 mM (inactive)
CCN1CCC(=NO)CC1 | > 4 mM (inactive)
Cc1noc(C)c1C(=O)Nc1ccc2c(c1)CCC2 | > 4 mM (inactive)
O[C@H]1C=C2CCN3Cc4cc5c(cc4C(C23)[C@@H]1O)OCO5 (some centres undefined) | > 4 mM (inactive)
CC1CCCN(C/C(O)=C(\C#N)c2nc3ccccc3[nH]2)C1 (centres undefined) | > 4 mM (inactive)
O=c1c(O)cc([C@H]2Oc3cc(O)cc(O)c3C[C@H]2O)cc2c([C@H]3Oc4cc(O)cc(O)c4C[C@H]3O)cc(O)c(O)c12 | > 4 mM (inactive)
Nc1c(C(=O)O)sc2ncccc12 | > 4 mM (inactive)
COc1ccc2c(c1)=C(c1sc(N)nc1O)C(=O)N=2 | > 4 mM (inactive)
O=C1NC(=S)NC(=O)C1=Cc1ccncc1 | > 4 mM (inactive)
CC1(C)CC2(CCO1)NCCN1C(=O)CSC12 (centres undefined) | > 4 mM (inactive)
Cn1c(SCC(N)=O)nnc1-c1cccnc1 | > 4 mM (inactive)
Cc1ccccc1C(=O)Nc1cccc(N)c1 | > 4 mM (inactive)
Nc1nc2[nH]c(=O)c(=O)[nH]c2c(=O)[nH]1 | > 4 mM (inactive)
Cn1cnnc1SCC(=O)Nc1nccs1 | > 4 mM (inactive)

SMILES | Kd
COC(=O)c1ccccc1NC(=O)c1cc[n+]([O-])cc1 | > 4 mM (inactive)
COc1cc2c(cc1OC)-c1nnnn1C(C)(C)C2 | > 4 mM (inactive)
Cc1ccc(NC(=O)c2ccccc2)s1 | > 4 mM (inactive)
O=C(O)CCC1=C2c3ccccc3CCN2C(=O)CC1 | > 4 mM (inactive)
Cn1cnc2ccc([N+](=O)[O-])cc2c1=O | > 4 mM (inactive)
O=C(O)CN(CCCc1ccccc1)CC(=O)O | > 4 mM (inactive)
Clc1ccc(-c2nnc3ccccn23)cc1 | > 4 mM (inactive)
O=c1nc(NCc2ccco2)sc2ncccc12 | > 4 mM (inactive)
Cc1c(CO)cnn1-c1ccc(F)cc1 | > 4 mM (inactive)
CC(=O)NCc1nc2ccccc2[nH]1 | > 4 mM (inactive)
O=C(O)C1CC(C2CCCCN2)CN2CCCCC12 (centres undefined) | > 4 mM (inactive)
NCCN=C1NS(=O)(=O)c2ccccc21 | > 4 mM (inactive)
COc1c(CC=C(C)C)c2c(c3oc(=O)c(-c4ccc(O)cc4)c(O)c13)C=CC(C)(C)O2 | > 4 mM (inactive)
Nc1ccccc1N=C1CNC(=O)C1 | > 4 mM (inactive)
CSc1nc(C)cc(Oc2ccc(=O)n(C)n2)n1 | > 4 mM (inactive)
CN(C)CCNC(CC(=O)Nc1ccccc1)C(=O)O (centres undefined) | > 4 mM (inactive)
Nc1c(S(=O)(=O)c2ccccc2)csc1C(=O)O | > 4 mM (inactive)
OC12CC3CC(C1)C1(NCCS1)C(C3)C2 (centres undefined) | > 4 mM (inactive)
O=c1c(-c2cccs2)[n+]([O-])c2ccccc2n1O | > 4 mM (inactive)
Cc1nc(-c2cnccn2)sc1C(=O)O | > 4 mM (inactive)
CC1=CCCC2C1(C)CCC(C)C2(C)CC/C(C)=C/C[n+]1cn(C)c2c(N)ncnc21 (centres undefined) | > 4 mM (inactive)
COc1cc(-c2nnc(NC(C)=O)o2)cc(OC)c1OC | > 4 mM (inactive)
Cc1nc(-c2ccc(C(=O)N3CCOCC3)cc2)cs1 | > 4 mM (inactive)

SMILES | Kd
CCOc1cccc(C(=O)c2ccc(O)c(O)c2O)c1 | > 4 mM (inactive)
Cc1cc(=O)c2c(O)cc(O)c(C)c2o1 | > 4 mM (inactive)
CCc1ccccc1NC(=O)c1cnccn1 | > 4 mM (inactive)
Nc1ccc(S(=O)(=O)Nc2ccc(F)cc2F)cc1 | > 4 mM (inactive)
O=C(O)CSCc1ccc(Cl)cc1 | > 4 mM (inactive)
O=C(O)C1=Cc2ccccc2OC1 | > 4 mM (inactive)
NCC1COc2ccccc2O1 (centres undefined) | > 4 mM (inactive)
CC(C)=NNC(=O)C(=O)NC(C)(C)C | > 4 mM (inactive)
Cc1cc(C)n(-c2nc(C)nc(N)n2)n1 | > 4 mM (inactive)
CC1CN(Cc2ccccn2)CCC1=O (centres undefined) | > 4 mM (inactive)
NC[C@H]1O[C@H](O[C@H]2[C@H](O)[C@@H](O[C@H]3O[C@H](CO)[C@@H](O)[C@H](N)[C@H]3O)[C@H](N)C[C@@H]2N)[C@H](N)[C@@H](O)[C@@H]1O | > 4 mM (inactive)
Cc1cc(C)nc(N(C#N)Cc2ccccc2)n1 | > 4 mM (inactive)
Cc1c(N=Cc2ccco2)c(=O)n(-c2ccccc2)n1C | > 4 mM (inactive)
CC(=O)Nc1ccc2c(c1)C(=O)N(C1CCCCC1)C2=O | > 4 mM (inactive)
CC(C)(O)[C@@H]1Cc2cc3ccc(=O)oc3cc2O1 | > 4 mM (inactive)
Cc1cccc(NC(=O)c2ccccc2C(=O)O)c1 | > 4 mM (inactive)
c1coc(CNc2ncnc3nc[nH]c23)c1 | > 4 mM (inactive)
O=C(CSc1ncn[nH]1)c1ccccc1 | > 4 mM (inactive)
CSCCNC(C)=O | > 4 mM (inactive)
Cc1cc(S(=O)(=O)N2CCOCC2)ccc1F | > 4 mM (inactive)
COc1ccc(-c2coc3c(OC)c(OC)cc(O)c3c2=O)cc1 | > 4 mM (inactive)
Cc1occc(=O)c1O | > 4 mM (inactive)
C=C1CCC2C(CC2(C)C)C(=C)CC/C1=N/O (centres undefined) | > 4 mM (inactive)

SMILES | Kd
Cc1occc1C(=O)Nc1nnc(C(F)(F)F)s1 | > 4 mM (inactive)
O=C1NC(=O)C(=Cc2ccccc2)C(=O)N1 | > 4 mM (inactive)
COc1cc2cc[n+]3cc4c(OC)c(OC)ccc4cc3c2cc1OC | > 4 mM (inactive)
Cc1noc(C)c1C(=O)N1CCc2ccccc2C1 | > 4 mM (inactive)
C(=C\c1ccccc1)/C=N/n1cnnc1 | > 4 mM (inactive)
COc1ccc2ccc(=O)oc2c1 | > 4 mM (inactive)
CC(=O)Nc1ccc(N(C)C(C)=O)cc1 | > 4 mM (inactive)
COc1cc2c(c(OC)c1OC)-c1ccc(O)c(=O)cc1[C@@H](NC(C)=O)CC2 | > 4 mM (inactive)
Nc1cccnc1N1CCOCC1 | > 4 mM (inactive)
OC/C=C/c1ccc(O)c(O)c1 | > 4 mM (inactive)
CNC(=S)N1CCN(C(=O)c2ccco2)CC1 | > 4 mM (inactive)
O=C1C2C3C=CC(C3)C2C(=O)N1c1cccnc1 (centres undefined) | > 4 mM (inactive)
CN1CCN(c2ccc(C(=O)O)cc2)CC1 | > 4 mM (inactive)
CCN1CCc2c(sc(N)c2C#N)C1 | > 4 mM (inactive)
O=C(NCC1CCCCC1)c1ccco1 | > 4 mM (inactive)
CC(=O)Nc1cccc(N(C)S(C)(=O)=O)c1 | > 4 mM (inactive)
Nc1nc2ccc(S(N)(=O)=O)cc2s1 | > 4 mM (inactive)
Nc1nc(SCC(=O)c2ccc([N+](=O)[O-])cc2)n[nH]1 | > 4 mM (inactive)
CC(=O)c1c(C)nn(CC(=O)O)c1C | > 4 mM (inactive)
Cn1nc(C(=O)Nc2cccnc2)cc1Cl | > 4 mM (inactive)
C[C@@H]1CC[C@@]2(OC1)OC1C(O)C3C4CC[C@H]5C[C@H](O[C@@H]6O[C@H](CO)[C@H](O[C@@H]7O[C@H](CO)[C@@H](O)[C@H](O[C@@H]8OC[C@@H](O)[C@H](O)[C@H]8O)[C@H]7O[C@@H]7O[C@H](CO)[C@H](O)[C@H](O[C@@H]8O[C@H](CO)[C@@H](O)[C@H](O)[C@H]8O)[C@H]7O)[C@H](O)[C@H]6O)[C@H](O)C[C@]5(C)C4CC[C@]3(C)C1[C@@H]2C (some centres undefined) | > 4 mM (inactive)
Cc1noc(C)c1C(=O)Nc1cccnc1 | > 4 mM (inactive)
